For assay [1], the system named is immobilized gamma globulin (IgG-2). The assay is described as follows: Adsorption and desorption of ovine PRPC peptides on immobilized IgG-2 column, ELISA titer. The class given is binding. The conditions noted are these: for Titer in pool: starting material, ELISA with mono-specific anti peptide antibody; for Desorbs (pH 5.0): titer in material eluted in pH 5.0 buffer; for Not adsorbed: titer in material not adsorbed on immobilized IgG-2 column at neutral pH. The method, then:
The ovine PRPC purified as described earlier was applied on immobilized IgG-2 column at neutral pH and eluted in pH 5.0 buffer. The starting materials not adsorbed and eluted materials were tested for the presence of selected peptides by an ELISA method, using mono-specific anti peptide antibody.
Changing the pH 7.0 of the IgG column by the elution buffer of pH 5.0 releases the peptides from the immobilized gamma globulin. Since the interaction between gamma globulin and peptide is not specific, the adsorption and desorption of the peptides from PRPC confirm theory concerning storage facility No II. Furthermore, the finding supports the hypothesis that binding the triplets to macromolecule represents the new mechanism used by host to transport triplets to new cells.
(In general: ELISA stands for enzyme-linked immunosorbent assay.)

Another assay has as its system rabbits. The assay is described as follows: Immunization of rabbits with peptide antigens, antibody titer in sera. The class given is in vivo, rabbit. The conditions noted are these: for Post immunization titers: estimated titer of the antibodies in sera from the immunized rabbits; for Before immunization: titer of the antibodies in rabbit sera before immunization. An excerpt:
The basic problem in preparation antibody for triplets and PRPC peptides is the size of antigen use for immunization purposes. Triplets by definition are made from three amino acids. Under normal condition such peptides are too small to induce the antibody production. The monospecific antibodies, however, can be made by presenting the antigen in the form of a single amino acid as an annealed antigen. The annealed antigen can be made from the same amino acid. In other approach it is possible to increase the size of antigen by repeating the same motif several times. Formation of the annealing polymer will overcome the difficulties connected with the antigen (peptide) for antibody production.
In order to make annealing it is necessary sometimes, to add to peptide empty (not active immunological) amino acids. The strategy used for production antibodies included both variants and addition of the complete Freund adjuvant. The mono-specific antibodies against various ovine PRPC antigens were prepared on rabbits. The larger animals like sheep, goat, or horse may also be utilized. Two rabbits were selected for each natural antigen.

Assay [2] in a line: Scavenger activity in Spin trap Electromagnetic resonance. The conditions noted are these: for Scavenger Activity: Spin trap Electromagnetic resonance. The class given is biochemical. The method, then:
(§1) The studies leading to discovery the mechanism protecting signals was already described earlier and is repeated here in Table 11. Amino acids QT, V, and DG may serve as an example of PRP protector present in CN V. The identified peptides were synthesized by BIO-[…] Inc. Lewisville Tex. USA. Peptides were purified in to 99% of purity their amino acid sequences were confirmed. The scavengers activity ware tested in Spin trap Electromagnetic resonance and their effect on the amyloid formation was tested on adult Lewis rats exposed to induced hypoxia. […] If small structural changes in carrier peptides lead to activation their biological activity, similar changes may suppress activity or even terminate the signal. This important property is called feed back signal. Similar type of signals ought to operate within PRPC III and PRPC IV network or are coded in CN V. In Table 12 are listed peptides that may be considered as terminating signals.

The test system of another assay is amyloid formation. The assay is described as follows: Amyloid formation in adult Lewis rats exposed to induced hypoxia. The class given is in vivo. The conditions noted are these: grades 0 to +++++, key not given. As for the experimental part: as §1

Some results are limits rather than exact numbers.

Take AFLLYQEPVLGPV [D-1, ID NO.: 40]: in assay [1], the Titer in pool is listed as 9300, the “Desorbs (pH 5.0)” value came out at 6400 and the Not adsorbed is on record as 200.

As for AFLLYQEPVLGPV [SEQ. ID. NO.: 40], in the assay on rabbits, the Post immunization titers is listed as >25,000 and the Before immunization was 0.

In the case of “DLEMPVLPVEPFPFV (Ovis aries) [SEQ. ID. NO.: 16]”, in the assay with rabbits, the Post immunization titers is given as >25,000 and the Before immunization is 0.

In the case of DPPPPQS (Ovis aries) [SEQ. ID. NO.: 6], in the assay with rabbits, the Post immunization titers is 6,400 and the Before immunization is 0.

“DQPPDVEKPDLQPFQVQS (Ovis aries) [B-9, ID NO.: 19]”: in assay [1], the Titer in pool is 2075, the “Desorbs (pH 5.0)” value was greater than 25600 and the Not adsorbed came to 0.

Take “DQPPDVEKPDLQPFQVQS (Ovis aries) [SEQ. ID. NO.: 19]”: in the assay on rabbits, the Post immunization titers is reported as >25,000 and the Before immunization came to 0.

As for DSQPPV (Ovis aries) [SEQ. ID. NO.: 14], in the assay on rabbits, the Post immunization titers is recorded as >25,000 and the Before immunization is given as 0.

With EMPFPKY (Ovis aries) [SEQ. ID. NO.: 21], in the assay with rabbits, the Post immunization titers is given as >25,000 and the Before immunization stood at 0.

As to FPPPK (Ovis aries) [SEQ. ID. NO.: 15], in the assay on rabbits, the Post immunization titers is recorded as >25,000 and the Before immunization was 0.

Consider HKEMPFPKYPVEPFTESQ [SEQ. ID NO.: 28], for which the “Free radical scavenger property (in words)” value in assay [2] is given as “powerful free radicals scavengers”.

On to “LFFFLPVVNVLP (Ovis aries) [SEQ. ID. NO.: 17]”, for which, in the assay on rabbits, the Post immunization titers is given as >25,000 and the Before immunization came to 0.

As for “LKPFPKLKVEVFPFP (Ovis aries) [SEQ. ID. NO.: 4]”, in the assay with rabbits, the Post immunization titers is recorded as >25,600 and the Before immunization amounted to 0.

Consider LPPNVG (Ovis aries) [SEQ. ID. NO.: 12], for which, in the assay with rabbits, the Post immunization titers is >25,000 and the Before immunization is reported as 0.

As for “LQTPQPLLQVMMEPQGD (Ovis aries) [SEQ. ID. NO.: 1]”, in the assay with rabbits, the Post immunization titers is listed as 12,800 and the Before immunization was 0. In assay [1], the Titer in pool is on record as 5400, the “Desorbs (pH 5.0)” value stood at 3200 and the Not adsorbed was found to be 800. Also, the “Scavenger Activity” value in assay [2] amounted to 11%. In the assay with amyloid formation, the “Inhibit Amyloid Formation” value came to 0.

Turning to “LSQPKVLPVPQKAVPKPDMPIQ [C-11, ID NO.: 34]”, in assay [1], the Titer in pool was 15400, the “Desorbs (pH 5.0)” value is recorded as greater than 25600 and the Not adsorbed is recorded as 400.

Regarding “LSQPKVLPVPQKAVPKPDMPIQ [SEQ. ID NO.: 34]”, the “Free radical scavenger property (in words)” value in assay [2] was “powerful free radicals scavengers”.

On to “LVYPFTGPIPNSLPQNILP (Ovis aries) [SEQ. ID. NO.: 20]”, for which, in the assay with rabbits, the Post immunization titers is given as >25,000 and the Before immunization was 0.

Turning to “MPQNFYKLPQM (Ovis aries) [SEQ. ID. NO.: 2]”, in the assay on rabbits, the Post immunization titers is on record as >25,600 and the Before immunization came to 0.

For the substance MQPPPLP (Ovis aries) [B-8, ID NO.: 18], in assay [1], the Titer in pool was 9000, the “Desorbs (pH 5.0)” value stood at 12800 and the Not adsorbed stood at 400.

With MQPPPLP (Ovis aries) [SEQ. ID. NO.: 18], in the assay on rabbits, the Post immunization titers was >25,000 and the Before immunization was determined as 0.

For “QPLLQVMMEPQ (Ovis aries) [SEQ. ID NO.: 10]”, the “Scavenger Activity” value in assay [2] amounted to 75%.

Turning to RGPTPILV, the “Free radical scavenger property (in words)” value in assay [2] was “powerful scavenger property”.

For the substance SEEMP (Ovis aries) [SEQ. ID. NO.: 13], in the assay with rabbits, the Post immunization titers was >25,000 and the Before immunization turned out to be 0.

As to SEQP (Ovis aries) [SEQ. ID. NO.: 5], in the assay on rabbits, the Post immunization titers was >25,600 and the Before immunization worked out at 0.

For SPSLPQNIL [C-2, ID NO.: 25], in assay [1], the Titer in pool was 5325, the “Desorbs (pH 5.0)” value is 12800 and the Not adsorbed is on record as 0.

In the case of SPSLPQNIL [SEQ. ID NO.: 25], in assay [2], the “Free radical scavenger property (in words)” value is given as “powerful free radicals scavengers”.

For the substance “VLEMKFPPPPQETVT (Ovis aries) [A-3, ID NO.: 3]”, in assay [1], the Titer in pool turned out to be 1350, the “Desorbs (pH 5.0)” value is 6400 and the Not adsorbed was 400.

Consider “VLEMKFPPPPQETVT (Ovis aries) [SEQ. ID. NO.: 3]”, for which, in the assay with rabbits, the Post immunization titers is listed as 12,800 and the Before immunization worked out at 0.

Consider VYPFPGPIN [SEQ. ID NO.: 24], for which the “Free radical scavenger property (in words)” value in assay [2] was “powerful free radicals scavengers”.

Source of the values: patent US20100173827A1, “ROLE OF PROLINE RICH PEPTIDES IN CELLULAR COMMUNICATION MECHANISMS AND TREATMENT OF DISEASES” (priority 2008, published 2010).
